pIC50: −log10 of the molar value. Like-named read-outs stand apart in the source and are kept apart here.
Legend:
Recombinant human FGFR1 = Recombinant human FGFR1 (Homo sapiens, UniProt P11362); test: Transcreener Kinase Assay of FGFR1; assay type: biochemical
Procedure: (§1) • 1. […] Prepare Solution • Test compounds were solved in DMSO and were diluted with assay buffer to 5 folds of final concentration keeping the DMSO concentration at 5%. Further dilution are needed to make final concentrations are at 1, 0.33, 0.11, 0.037, 0.012, 0.004, 0.0014, 0.0005 μM; (the final concentration of DMSO is 1%). • Enzyme/Substrate stock Preparation: Recombinant human FGFR1 and Poly E4Y are both diluted in assay buffer.
• 3. Enzymatic Reaction • In a 96-well plate, add 5 μL of diluted solution of test compound or control solution. (positive control: 5 μL of 5% DMSO; negative control: 5 μL of 500 mM EDTA) into desired wells respectively; • Add 10 μL of Enzyme/Substrate stock into each well; • Add 10 μL of ATP Diluents to initiate the enzyme reaction and vortex the plate immediately on a plate shaker; • For the wells to make standard curve, add 5 μL of 5% DMSO, 10 μL of assay buffer and 10 μL of ATP standard curve stock. • Incubate the plate for 45 min at 28° C. on a plate shaker in a low speed. • 4. […] Excitation wavelength: 610 nm, Emission wavelength: 670 nm. • 5. Data Analysis
(§2) [formula] Note: • [ADP] in Compound well represents the ADP concentration in test compound well. • [ADP] in Positive control well represents the ADP concentration in 5% DMSO well • Conversion of mP value to ADP concentration is calculated based on the formula which determined by standard curve. And mP value is measured by following the instruction provided by BellBrook Labs. (www.bellbrooklabs.com). • 6. IC50: determined with add-in software for Microsoft Excel, XLfit™ (version 2.0) from ID Business Solutions (Guildford, UK).

Recombinant human FGFR2 = Recombinant human FGFR2 (Homo sapiens, UniProt P21802); test: Transcreener Kinase Assay of FGFR2; assay type: biochemical
Chain of Recombinant human FGFR2 (P21802 22-821): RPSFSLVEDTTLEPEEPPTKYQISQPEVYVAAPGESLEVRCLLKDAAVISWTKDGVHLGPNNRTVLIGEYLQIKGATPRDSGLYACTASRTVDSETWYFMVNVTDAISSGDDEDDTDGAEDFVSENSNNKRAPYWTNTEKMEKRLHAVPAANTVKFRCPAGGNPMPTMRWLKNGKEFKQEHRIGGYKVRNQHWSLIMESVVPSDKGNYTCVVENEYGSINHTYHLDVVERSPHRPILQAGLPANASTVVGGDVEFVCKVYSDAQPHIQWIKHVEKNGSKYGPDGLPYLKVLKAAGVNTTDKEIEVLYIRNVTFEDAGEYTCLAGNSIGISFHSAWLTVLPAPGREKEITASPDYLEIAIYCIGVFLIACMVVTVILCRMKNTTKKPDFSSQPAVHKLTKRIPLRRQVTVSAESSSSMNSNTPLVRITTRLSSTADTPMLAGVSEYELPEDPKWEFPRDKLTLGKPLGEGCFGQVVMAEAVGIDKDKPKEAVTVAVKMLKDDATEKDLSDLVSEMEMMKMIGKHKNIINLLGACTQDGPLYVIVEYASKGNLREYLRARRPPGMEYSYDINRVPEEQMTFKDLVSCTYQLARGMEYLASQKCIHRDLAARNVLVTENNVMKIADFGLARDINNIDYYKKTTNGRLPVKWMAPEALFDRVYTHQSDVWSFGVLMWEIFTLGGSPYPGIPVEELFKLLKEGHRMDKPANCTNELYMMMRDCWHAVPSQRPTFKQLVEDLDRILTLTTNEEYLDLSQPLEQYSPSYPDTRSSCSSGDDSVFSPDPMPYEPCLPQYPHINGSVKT
Procedure: Example 24: Transcreener Kinase Assay of FGFR2
as §1, with “FGFR2” for “FGFR1”, “buffer. The final concentration is 0.3 ng/μL for FGFR2 and 62.5 ng/μL for Poly E4Y. The mixture is being kept in ice before use; • Prepare ATP Diluents, 10 mM ATP is diluted in assay buffer, the final concentration is 25 μM; • Prepare ADP Diluents: diluted ADP (500 μM) in assay buffer, the final concentration is 25 μM; • Prepare ATP standard curve stock as following:” for “buffer.”
• 3. Enzymatic Reaction • In a 96-well plate, add 5 μL of deluted solution of test compound or control solution. (positive control: 5 μL of 5% DMSO; negative control: 5 μL of 500 mM EDTA) into desired wells respectively; • Add 10 μL of Enzyme/Substrate stock into each well; • Add 10 μL of ATP Diluents to initiate the enzyme reaction and vortex the plate immediately on a plate shaker; • For the wells to make standard curve, add 5 μL of 5% DMSO, 10 μL of assay buffer and 10 μL of ATP standard curve stock. • Incubate the plate for 45 min at 28° C. on a plate shaker in a low speed. • 4. Stoping Reaction and Detecting ADP • Detection Mix Preparation: The mixture is made by dilution with MilliQ water; as following: ADP Alexa633 tracer (1:100), ADP antibody (1:158), and stop & detect buffer (1:10); • Tracer Only control Preparation: The mixture is made by dilution with MilliQ water; as following: ADP Alexa633 tracer (1:100), and stop & detect buffer (1: 10) • No Tracer control Preparation: stop & detect buffer is diluted with MilliQ water; by 10 fold. • Add 25 μL of detection mix, Tracer Only control and No Tracer control into corresponding wells, respectively; • Incubate at 28° C. for 1 h, on a plate shaker in a low speed; • Measure florescence polarization (mP) on TECAN F500. Excitation wavelength: 610 nm, Emission wavelength: 670 nm. • 5. Data Analysis
as §2

FGFR3 kinase = FGFR3 kinase (Homo sapiens, UniProt P22607); test: Z-Lyte Kinase Assay of FGFR3; assay type: biochemical
Chain of FGFR3 kinase (P22607 23-806): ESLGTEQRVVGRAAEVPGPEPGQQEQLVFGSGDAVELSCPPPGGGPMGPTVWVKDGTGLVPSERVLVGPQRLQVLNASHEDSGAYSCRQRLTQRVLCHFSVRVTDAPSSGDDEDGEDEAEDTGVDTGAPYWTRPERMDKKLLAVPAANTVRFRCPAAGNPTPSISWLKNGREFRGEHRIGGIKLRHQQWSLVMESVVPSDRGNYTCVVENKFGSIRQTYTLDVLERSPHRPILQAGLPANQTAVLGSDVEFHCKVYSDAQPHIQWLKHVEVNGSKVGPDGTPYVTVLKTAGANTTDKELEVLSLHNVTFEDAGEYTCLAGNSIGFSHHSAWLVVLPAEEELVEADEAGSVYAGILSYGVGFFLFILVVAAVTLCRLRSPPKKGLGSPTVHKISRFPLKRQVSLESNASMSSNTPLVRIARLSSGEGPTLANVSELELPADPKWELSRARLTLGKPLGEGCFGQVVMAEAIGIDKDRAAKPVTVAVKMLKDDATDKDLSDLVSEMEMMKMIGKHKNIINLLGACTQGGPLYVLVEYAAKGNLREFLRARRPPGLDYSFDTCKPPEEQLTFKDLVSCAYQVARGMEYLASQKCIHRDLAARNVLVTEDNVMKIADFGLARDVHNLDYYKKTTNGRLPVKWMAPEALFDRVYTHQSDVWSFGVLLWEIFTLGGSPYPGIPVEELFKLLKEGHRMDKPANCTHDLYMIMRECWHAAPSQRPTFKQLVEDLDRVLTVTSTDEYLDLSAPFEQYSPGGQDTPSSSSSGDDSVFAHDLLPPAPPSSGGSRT
Procedure: Example 25: Z-Lyte Kinase Assay of FGFR3
• 1. Materials and Reagents:
• 2. Reaction Steps: Plate Map
• 3. […] The final concentrations are 1, 0.33, 0.11, 0.037, 0.012, 0.004, 0.0014, 0.00046 μM, and the final concentration of DMSO is 2%. • 3) Kinase/Peptide Mixture (P/K solution): Prepare Kinase/Peptide Mixture by diluting the kinase to 0.7 μg/ml and the Z-LYTE™ Tyr 4 peptide to 4 μM in 1.33× Kinase Buffer. Mix gently by pipetting. • 4) Phospho-peptide Solution (PP solution): Add 0.4 μl of Z-LYTE™ Tyr 4 Phospho-peptide to 99.6 μl of 1.33× Kinase Buffer. • 5) ATP Solution: Prepare ATP Solution by diluting the 10 mM of ATP in 1.33× Kinase Buffer to 300 uM. • 6) Development Solution: Dilute Development Reagent B with Development Buffer as 1:128. • 4. […] Shake the plate for 30 Sec and centrifuge (1500 rpm, 1 min). • Seal the plate to protect from the light and incubate the plate for 1 hour at RT (25-30° C.). • 2) Development reaction • Add 5 μl of the Development solution to all wells. • Shake the plate for 30 Sec and centrifuge (1500 rpm, 1 min). • Seal the plate to protect from the light and incubate the plate for 1 hour at RT (25-30° C.). • 3) Stop and Read • Add 5 μl of the Stop reagent to all wells. • Shake the plate for 30 Sec and centrifuge (1500 rpm, 1 min). • Measure the value of Coumarin (Ex400 nm, Em445 nm) and fluorescein (Ex400 nm, Em520 nm), respectively. • 5. Data Analysis Emission Ratio(ER)=Coumarin Emission (445 nm)/Fluorescein Emission (520 nm) % Phosphorylation=1−[ER×C3520nm-C3445nm]/[(C1445nm-C3445nm)+ER×(C3520nm−C1520nm)] Inhibition rate (IR)=1−% Photest Cpd/% PhoC2 • 6. IC50 Value: determined with add-in software for Microsoft Excel, XLfit™ (version 2.0) from ID Business Solutions (Guildford, UK)

KG-1 = test: Cellular Proliferation Assay (Cell Counting Kit-8), KG-1; assay type: cell-based; conditions: Homo sapiens; KG-1 cells, 72 hours; read-out: KG1 IC50
Procedure: (§3) Example 26: Cellular Proliferation Assay
(§4) • 1. Cell Line • KG-1 (ATCC Accession No. CCL-246), • SNU-16 (ATCC Accession No. CRL-5974), • RT-112 (ECACC Accession No. 85061106) • 2. Assay Protocol • FGFR related cancer cell proliferation is measured in 96-well plates using Cell Counting Kit-8 (Dojindo CK04-13). • Seed 30000 cells/well of KG1, 5000 cells/well of SNU16, and 1000 cells/well of RT112 in a volume of 100 μL/well in growth media. • After 24 hours, dilute the test compound to 10, 3.3, 1.1, 0.37, 0.12, 0.04, 0.013, 0.004 μM, keeping the DMSO concentration at 5%. • Add 10 μL of 8-point compound series to the wells of culturing cells. • Incubate at 37° C. and 5% CO2 for 72 hours • Add 10 μL/well of CCkit8 and incubate at 37° C. and 5% CO2 for an hour • Detect the optical density of each well at 450 nm on Labsystems Multiskan K3. • 3. Data Analysis
(§5) [formula] Note: • ODcompound well represents the optical density of cells treated with compound. • ODcell well represents the optical density of cells without compounds treatment.(only 0.5% DMSO) • ODcontrol well represents the optical density of culture media background • IC50: determined with add-in software for Microsoft Excel, XLfit™ (version 2.0) from ID Business Solutions (Guildford, UK).

SNU-16 = test: Cellular Proliferation Assay (Cell Counting Kit-8), SNU-16; assay type: cell-based; conditions: Homo sapiens; SNU-16 cells, 72 hours
Procedure: as §3, §4, §5

RT-112 = test: Cellular Proliferation Assay (Cell Counting Kit-8), RT-112; assay type: cell-based; conditions: Homo sapiens; RT-112 cells, 72 hours
Procedure: as §3, §4, §5

Chain of Recombinant human FGFR1 (P11362 22-822): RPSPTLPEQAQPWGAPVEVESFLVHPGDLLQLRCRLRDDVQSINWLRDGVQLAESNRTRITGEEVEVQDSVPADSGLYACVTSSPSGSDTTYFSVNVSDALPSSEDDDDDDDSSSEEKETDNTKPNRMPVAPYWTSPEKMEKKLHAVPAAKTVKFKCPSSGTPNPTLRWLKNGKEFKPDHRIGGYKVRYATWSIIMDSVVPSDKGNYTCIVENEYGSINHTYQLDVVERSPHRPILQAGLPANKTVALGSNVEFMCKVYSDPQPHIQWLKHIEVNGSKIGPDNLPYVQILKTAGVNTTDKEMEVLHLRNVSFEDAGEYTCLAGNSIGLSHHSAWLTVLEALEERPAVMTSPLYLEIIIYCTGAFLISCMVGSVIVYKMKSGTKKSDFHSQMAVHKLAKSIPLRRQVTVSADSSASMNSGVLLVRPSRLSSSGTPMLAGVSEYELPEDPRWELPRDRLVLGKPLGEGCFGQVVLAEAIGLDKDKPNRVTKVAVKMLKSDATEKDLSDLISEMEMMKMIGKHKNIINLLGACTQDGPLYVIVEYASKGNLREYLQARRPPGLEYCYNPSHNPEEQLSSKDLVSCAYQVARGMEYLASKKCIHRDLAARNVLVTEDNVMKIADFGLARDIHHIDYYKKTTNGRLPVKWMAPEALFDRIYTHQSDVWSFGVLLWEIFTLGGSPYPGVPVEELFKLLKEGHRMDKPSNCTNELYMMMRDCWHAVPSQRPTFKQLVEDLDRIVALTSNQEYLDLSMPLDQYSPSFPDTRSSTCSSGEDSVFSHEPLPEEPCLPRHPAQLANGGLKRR

Compound	pIC50 (Recombinant human FGFR1; read-out: FGFR1 (FP) IC50)	pIC50 (Recombinant human FGFR2; read-out: FGFR2 (FP) IC50)	pIC50 (FGFR3 kinase)	pIC50 (KG-1)	pIC50 (SNU-16)	pIC50 (RT-112)	pIC50 (Recombinant human FGFR1; FP)	pIC50 (Recombinant human FGFR2; FP)	pIC50 (FGFR3 kinase; Z-lyte)
CNC(=O)c1cc(COc2cnc(Nc3ccc(N4C[C@@H](C)N(C)[C@@H](C)C4)nc3)nc2)c(F)c(OC)c1 [Compound 268]	7.68	7.80	7.70	7.77	7.74	7.33			
CNC(=O)c1cc(COc2cnc(Nc3cccc(OC)c3)nc2)c(F)c(OC)c1 [Compound 212]	7.59	7.80	7.10	7.23	7.85	7.24			
CNC(=O)c1cc(COc2cnc(Nc3ccc(C4CCNCC4)cc3)nc2)c(F)c(OC)c1 [Compound 231]	7.80	7.80	7.96	7.24	8.10	8.05			
CNC(=O)c1cc(COc2cnc(Nc3cnc(N4C[C@@H](C)N[C@@H](C)C4)c(C)c3)nc2)c(Cl)c(OC)c1 [Compound 287]				7.27	7.85	7.46	7.96	8.10	8.10
CNC(=O)c1cc(COc2cnc(Nc3ccc(N4CCOCC4)nc3)nc2)c(Cl)c(OC)c1 [Compound 247]	7.47	7.80	7.64	7.38	7.55	7.24			
CCN1[C@H](C)CN(c2ccc(Nc3ncc(OCc4cc(C(=O)NC)cc(OC)c4F)cn3)cn2)C[C@@H]1C [Compound 281]				8.05	7.85	7.43	7.72	7.85	7.72
CNC(=O)c1cc(COc2cnc(Nc3ccc(N4CCN(C)CC4)c(OC)c3)nc2)c(Cl)c(OC)c1 [Compound 288]				8.70	8.70	8.52	8.22	8.40	8.40
CNC(=O)c1cc(COc2cnc(Nc3ccc(-n4cnnc4)cc3)nc2)c(F)c(OC)c1 [Compound 223]	7.54	7.74	7.70	6.99	7.29	6.14			
CNC(=O)c1cc(COc2cnc(Nc3ccc(OC)c(OC)c3)nc2)c(F)c(OC)c1 [Compound 218]	7.60	7.92	7.68	7.57	8.15	7.36			
CNC(=O)c1cc(CCc2cnc(Nc3ccc(N4C[C@@H](C)N(C)[C@@H](C)C4)nc3)nc2)c(Cl)c(OC)c1 [Compound 158]	7.85	8.15	8.22	7.80	8.15	7.54			
CNC(=O)c1cc(COc2cnc(Nc3ccc(N4CCC(N(C)C)CC4)cc3)nc2)c(F)c(OC)c1 [Compound 264]	8.00	8.30	8.22	8.15	8.10	8.10			
CCN1CCC(c2ccc(Nc3ncc(OCc4cc(C(=O)NC)cc(OC)c4F)cn3)cn2)CC1 [Compound 256]	7.00	7.40	7.41	6.69	7.66	7.24			

— patent publication US9701680B2, “Pyrimidine and pyridine compounds and their usage” (HUTCHISON MEDIPHARMA LIMITED, priority 2013, dated 2017)
